The supplement of paper PMC10307832

Tests used:
Test in all cases: relative viability (nuclei count vs DMSO), 5 days (fraction); higher = more cells survive
[1] = compound: O=C(/C=C/c1ccccc1)NC(NC(=S)Nc1cccc2cccnc12)C(Cl)(Cl)Cl [Salubrinal] + CCNC(=O)c1noc(-c2cc(C(C)C)c(O)cc2O)c1-c1ccc(CN2CCOCC2)cc1 [Luminespib] (partner 0.01 µM)
Outline: (§1)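 Relative viability equals treated-well nuclei counts divided by vehicle-well nuclei counts. Counts came from 4× images of lung cancer cell lines grown in 1536-well plates for 5 days after pin-tool dosing on the day after seeding. Dosing used one drug alone or a fixed anchor-drug dose plus five library-drug doses (not always all listed) in √10 steps, and values are medians of duplicate plates.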

[2] = compound: Cc1ccc2nc(NCCN)c3ncc(C)n3c2c1 + N=C(N)NC(=N)NCCc1ccccc1 [Phenformin] (partner 250 µM)
Outline: as §1

[3] = compound: Cc1ccc2nc(NCCN)c3ncc(C)n3c2c1 + O=C(c1cc(Cc2n[nH]c(=O)c3ccccc23)ccc1F)N1CCN(C(=O)C2CC2)CC1 [Olaparib] (partner 8 µM)
Outline: as §1

[4] = compound: Cc1ccc2nc(NCCN)c3ncc(C)n3c2c1 + COc1cccc2cc(-c3nc([C@H]4CC[C@H](C(=O)O)CC4)n4ncnc(N)c34)[nH]c12 [OSI-027] (partner 0.5 µM)
Outline: as §1

Question: UMC-11 was tested. Which relative viability ([1]; first compound 0.08 µM) did it give?
Answer: 1.06

Question: What about the relative viability ([1]; first compound 0.253 µM) of the same cell line?
Answer: 0.835

Question: And the relative viability ([1]; first compound 0.8 µM)?
Answer: 1.14

Question: And the relative viability ([1]; first compound 2.53 µM)?
Answer: 1.05

Question: And the relative viability ([1]; first compound 8 µM)?
Answer: 1.14

Question: And the relative viability ([2]; first compound 0.04 µM)?
Answer: 0.352

Question: And the relative viability ([2]; first compound 0.1265 µM)?
Answer: 0.319

Question: What about the relative viability ([2]; first compound 0.4 µM) of the same cell line?
Answer: 0.333

Question: What about the relative viability ([2]; first compound 1.265 µM) of the same cell line?
Answer: 0.335

Question: What about the relative viability ([2]; first compound 4 µM) of the same cell line?
Answer: 0.349

Question: And the relative viability ([3]; first compound 0.04 µM)?
Answer: 0.376

Question: What about the relative viability ([3]; first compound 0.1265 µM) of the same cell line?
Answer: 0.355

Question: And the relative viability ([3]; first compound 0.4 µM)?
Answer: 0.388

Question: What about the relative viability ([3]; first compound 1.265 µM) of the same cell line?
Answer: 0.35

Question: And the relative viability ([3]; first compound 4 µM)?
Answer: 0.301

Question: What about the relative viability ([4]; first compound 0.04 µM) of the same cell line?
Answer: 0.51

Question: And the relative viability ([4]; first compound 0.1265 µM)?
Answer: 0.471

Question: What about the relative viability ([4]; first compound 0.4 µM) of the same cell line?
Answer: 0.481

Question: And the relative viability ([4]; first compound 1.265 µM)?
Answer: 0.416

Question: And the relative viability ([4]; first compound 4 µM)?
Answer: 0.47
